Test results published in patent publication US20200206313A1, “POLYPEPTIDE NANOTUBES LINKED BY DISULFIDE BONDS FOR TARGETED DELIVERY OF CYTOTOXIC THERAPIES” (MUSC FOUNDATION FOR RESEARCH DEVELOPMENT, priority 2018, published 2020).
No end group written: not given here. *: point of attachment. FITC = O=C1OC2(c3ccc(O)cc3Oc3cc(O)ccc32)c2ccc(NC(=S)*)cc21

How the values were obtained:
[1] = In vitro DOX release by dialysis method; assay type: physicochemical; settings: physiological pH 7.4, 37° C., free DOX versus nanotube-DOX
Protocol: In-vitro drug release experiments were conducted using the dialysis method. The Nanotube-DOX conjugate was dialyzed against medium under different conditions: pH 5, pH 7.4, pH 7.4 with addition of 10 mM GSH, pH 5+10 mM GSH, pH 7.5+10 mM GSH+Enzyme (trypsin) and pH 5+10 mM GSH+trypsin. GSH was used to stimulate redox conditions and trypsin was used to investigate the effect of a non-specific enzyme on nanotube drug carrying ability. As a control free DOX was dialyzed against the same medium at physiological pH (7.4). All dialysis experiments were performed using a dialysis kit having a molecular mass cutoff of 1 kDa. Samples were dialyzed against the DMEM medium without phenol red (Thermofisher scientific) containing 1% P/S (Penicillin-Streptomycin, Cat no, India), 10% FBS (Fetal bovine serum, RM10432, Himedia, India) separately, with gentle and constant stirring at 37° C. At specific time points, aliquots of the medium were collected and absorbance at 495 nm was measured to quantify the release of DOX.

[2] = system: MDAMB231; assay: Cytotoxicity, MTT assay, MDAMB231; assay type: cell-based
Protocol: (§1) HeLa (Cervical cancer cell line), MDA-MB-231 (Breast cancer cell line) and HaCaT (Human keratinocytes) cells were maintained in growth medium consisting of Dulbecco's Modified Eagle's Medium (DMEM, Gibco, India) with high glucose, supplemented with 10% FBS and 1% penicillin-streptomycin. The cells were grown in […] flasks (BD Falcon) and passaged every three days. All culture reagents were purchased from Thermofisher scientific. The serum free media was used to eliminate any confounding effects from serum adsorption to the nanotubes. Within the time-period (5 h) of the experiment, no adverse cellular responses were observed from serum deprivation or serum shock after a transfer from serum containing growth media.
(§2) Cytotoxicity of nanotube, DOX loaded nanotube and free DOX were assessed in HeLa and MDAMB231 using the MTT assay. About 5×10^3 cells were seeded per well of a 96-well plate and allowed to attach during incubation for 24 h in a humidified incubator at 37° C. Cells were treated with different concentrations of nanotubes, free DOX or DOX loaded nanotubes ranging from 0.2 to 6.4 μg/ml. Four hours before termination of the assay, MTT was added. Mitochondria of viable cells […] MTT to produce purple Formazan crystals. […] The absorbance of each well was measured at 570 nm using a microplate reader (Synergy HT, BioTek Instrument Inc., Winooski Vt.). […]

[3] = system: HeLa cells; assay: Cellular uptake of DOX by FACS, HeLa; assay type: cell-based; settings: percentage population, 0.4 μg/ml, the sentence does not name the cell line (HeLa assumed)
Protocol: Fluorescence-activated cell sorting (FACS) was used to quantify the cellular uptake of free Doxorubicin and that released from the Nanotube-DOX conjugates exposed to HeLa and HaCaT cells. The cells were treated with free DOX and Nanotube-DOX for 0.5, 1, 2 and 4 h using concentrations corresponding to their IC50 values. The cells were washed with DPBS to remove the unassimilated DOX and then trypsinized. The cell suspension was then centrifuged, and the pellet was re-suspended in 300 μl of DPBS with 0.1% of FBS. The DOX uptake was estimated by quantifying the cell populations using FACS employing Cell Quest software (using a FACSCalibur instrument, BD Biosciences, San Jose Calif.).

[4] = system: HeLa; assay: Cytotoxicity, MTT assay, HeLa; assay type: cell-based
Protocol: as §1, §2

[5] = system: HeLa cells; assay: Confocal visualization of cellular uptake of DOX in HeLa cells; assay type: cell-based; settings: 0.4 μg/ml, 1 h and 4 h
Protocol: (§3) For microscopic analysis, cells were grown on sterile coverslips with all treatments performed in DMEM without serum for 1 h or 4 h. Treatment was terminated by removing medium and cells washing cells twice with PBS followed by nuclear staining with DAPI (4′,6-diamidino-2-phenylindole) for 10 min at room temperature. Cells were then washed with DPBS and excess buffer was removed. Coverslips were then treated with Antifade (Thermo Fisher Scientific India Private Ltd.) and sealed to a sterile glass slide and analyzed by confocal microscopy (LSM 510 Meta equipped with an Airyscan module, Zeiss, GmbH, Germany).

[6] = system: integrin receptors on the cell surface (HeLa cells); assay: Confocal imaging of nanotube-FITC interaction with HeLa cells; assay type: cell-based; settings: for change of cell-associated signal after integrin inhibitor RGDS: 1 h with 25 μg/ml inhibitor after 4 h incubation
Protocol: as §3

[7] = Stability of nanotubes by fluorescence emission spectra at various pH and temperature; assay type: physicochemical
Protocol: Fluorescence spectra were acquired on a Perkin Elmer Fluorescence spectrometer. Spectra were recorded for protein samples prepared in 10 mM Tris buffer at pH 7 or 12 (i.e., neutral and basic pH) and 10 mM HEPES buffer at pH 2 (acidic pH) and data were recorded using a 1.0 cm path length quartz cuvette. An excitation wavelength of 280 nm (tyrosine excitation) was used having slit width 2.5 nm and emission spectra were collected from 300 nm to 550 nm with λmax at 340 nm.

[8] = system: integrin-induced phosphorylation of FAK at tyrosine 397; assay: Integrin signaling: Western blot of FAK phosphorylation at tyrosine 397 in HeLa cells; assay type: cell-based; settings: 500 ng/ml, 1 h
Protocol: Cells were maintained as mentioned above in 65 mm dishes. HeLa cells were serum starved for 24 h to remove the effect of serum on cells. Cells were treated with nanotubes or full length IGFBP-2 (1-289) for 1 h in serum-free DMEM. An additional set of cells was treated for 1 h with nanotubes or full length IGFBP-2 without the integrin pathway inhibitor (RGDS) under the same conditions. For control treatments, cells were pretreated with 10 mM RGDS peptide for 1 h. Later, cells were washed once with PBS and lysed in detergent lysis buffer (150 mM NaCl (Sigma Aldrich, USA), 0.1% SDS (Calbiochem, Germany), 0.5% NP40 (Amresco, USA), 1 mM EDTA (pH 8) and protease inhibitor cocktail, PIC (Calbiochem) with gentle vortexing at 4° C. for 20 min and centrifuged at 10,000×g for 10 min. The soluble fraction was separated and, protein estimation was done by Bradford assay. 30 μg of total protein was dissolved in SDS sample buffer (240 mM Tris-HCl (pH 6.8), 8% (w/v) SDS, 0.1% bromophenol blue and 40% (v/v) glycerol), heated at 96° C. for 10 min and centrifuged briefly. Samples were resolved on 12.5% SDS-polyacrylamide gels in Tris-glycine electrophoresis buffer (pH 8.3) containing 25 mM Tris base, 250 mM glycine and 0.1% SDS at 100 Volts for 2 h. […]

[9] = Zeta potential; assay type: physicochemical
Protocol: The Nano tubular size distribution was measured on Zetasizer (Malvern, Southborough, Mass., USA). The changes in the surface charges of free nanotube and nanotube-DOX were probed via the zeta potential using Nano ZS (Malvern, Southborough, Mass., USA).

[10] = Stability of mature nanotubes by AFM; assay type: physicochemical; settings: ~9-months old nanotubes
Protocol: AFM experiments were performed on a NX-10 AFM (Park systems) system in the non-contact mode. The protein sample was dropped onto freshly cleaved mica and incubated for 20 min. After rinsing with Milli-Q water two times, the sample was dried in a desiccator. […] The tip radius was <10 nm. Images were obtained at a scan rate of 1 Hz.

COc1cccc2c1C(=O)c1c(O)c3c(c(O)c1C2=O)C[C@@](O)(C(=O)CO)C[C@@H]3O[C@H]1C[C@H](N)[C@H](O)[C@H](C)O1.Cl [free DOX, Doxorubicin hydrochloride]
release of DOX into the medium [1]: faster than that of DOX loaded on the nanotube
cells killed ([2]; MDAMB231, 5 μg/ml, 48 h): ~70%
increase in Dox uptake from 2 h to 4 h [3]: more than 5 fold
cells killed ([4]; 5 μg/ml, 48 h): ~70%
intracellular localization of drug [5]: major accumulation is seen within nuclei

Fluorescein isothiocyanate [free FITC, reference compound]
change of cell-associated signal after integrin inhibitor RGDS [6]: does not show a significant decrease

nanotube-FITC (GPLGSPGIRGSCVNPNTGK(FITC)LIQGAPTIRGDPECHLFYNEQQEACGVHTQRMT; not fully specified (bridges); also: self-assembled nanotube, subunits linked by intermolecular cysteine disulfides)
internalization / cellular distribution ([6]; 360 ng/ml, 4 h, serum free medium): no significant internalization
change of cell-associated signal after integrin inhibitor RGDS [6]: prominent loss of nanotube-FITC intensity

nanotube: Self-assembled disulfide-linked nanotube of polypeptide hIGFBP-2 249-289 (R281C), SEQ ID NO: 1, with RGD motif (GPLGSPGIRGSCVNPNTGKLIQGAPTIRGDPECHLFYNEQQEACGVHTQRMT; not fully specified (bridges); also: self-assembled nanotube, subunits linked by intermolecular disulfides (Cys12, Cys33, Cys44))
stability at different pH ([7]; pH 2, 7 and 12, fluorescence spectra): stable at all the three pH
stability at high temperature ([7]; pH 7, 90° C., fluorescence spectra): intact
pFAK induction in presence of RGDS inhibitor ([8]; RGDS pre-treatment): compromised
intensity of pFAK ([8]; absence of inhibitor): higher compared to control cells
cytotoxicity of nanotube alone ([2]; MDAMB231, after 48 h): did not cause any appreciable cytotoxicity
cytotoxicity of nanotube alone ([4]; after 48 h): did not cause any appreciable cytotoxicity
zeta potential [9]: −21.4 mV
morphological characteristics on storage [10]: intact
